Measured values reported in ChEMBL document CHEMBL1201862, “PubChem BioAssay data set” (2004).
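Five compound concentrations were applied to cells in 96-well plates for 48 hours; endpoints were derived by simple linear interpolation of the resulting dose-response curve. The concentration for 50% growth inhibition is given as GI50.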 The source made the active and inactive calls. Cut-off read from the data, not from the text of the source: active = GI50 up to about 1.1 µM and inactive = higher.

What was measured:
Assay in all cases: NCI anticancer screen, dose series, 48 h
HT-29 = system: HT-29
COLO 205 = system: COLO 205
SK-MEL-5 = system: SK-MEL-5
SNB-19 = system: SNB-19
CAKI-1 = system: CAKI-1
Malme-3M = system: Malme-3M
HL-60 = system: HL-60
HCT-15 = system: HCT-15
UO-31 = system: UO-31
M14 = system: M14
MCF7 = system: MCF7
SK-MEL-2 = system: SK-MEL-2
SF-268 = system: SF-268
SW-620 = system: SW-620
SK-MEL-28 = system: SK-MEL-28
ACHN = system: ACHN
SR = system: SR
A498 = system: A498
SN12C = system: SN12C

Measured: GI50

CC(=O)OC(=C(C#N)C#N)c1nccnc1C(=O)O
> 100 µM: HCT-15
inactive: HT-29 > 100 µM | COLO 205 > 100 µM | SK-MEL-5 > 100 µM | SNB-19 > 100 µM | CAKI-1 > 100 µM | Malme-3M > 100 µM | HL-60 > 100 µM | UO-31 > 100 µM | M14 > 100 µM | MCF7 > 100 µM | SK-MEL-2 > 100 µM | SF-268 > 100 µM | SW-620 > 100 µM | SK-MEL-28 > 100 µM | ACHN > 100 µM | SR > 100 µM | A498 > 100 µM | SN12C > 100 µM

COC(=O)c1ccccc1/C=C1\Cc2cc3c(cc2C1=O)CCC3
29.8 µM: HCT-15
inactive: HT-29 > 100 µM | COLO 205 > 100 µM | SK-MEL-5 > 100 µM | SNB-19 > 100 µM | CAKI-1 > 100 µM | Malme-3M > 100 µM | HL-60 > 100 µM | UO-31 > 100 µM | M14 24 µM | MCF7 40.6 µM | SK-MEL-2 20.7 µM | SF-268 68.5 µM | SW-620 > 100 µM | SK-MEL-28 > 100 µM | ACHN > 100 µM | SR > 100 µM | A498 61.2 µM | SN12C > 100 µM

CN(CCCNC(=O)c1nn(-c2ccccc2)c2c1Cc1ccccc1-2)CCCNC(=O)c1nn(-c2ccccc2)c2c1Cc1ccccc1-2
active: HL-60 0.603 µM | M14 1.05 µM | SR 0.191 µM
1.64 µM: HCT-15
inactive: HT-29 1.73 µM | COLO 205 1.45 µM | SK-MEL-5 1.57 µM | SNB-19 1.61 µM | CAKI-1 1.38 µM | Malme-3M 1.5 µM | UO-31 1.61 µM | MCF7 1.63 µM | SK-MEL-2 1.69 µM | SF-268 1.63 µM | SW-620 1.31 µM | SK-MEL-28 1.59 µM | ACHN 1.73 µM | A498 1.69 µM | SN12C 1.76 µM

O=C(/N=C1/OC(CN2CCOCC2)CN1C(=O)Nc1ccccc1)Nc1ccccc1 (stereo not given)
inactive: HT-29 > 100 µM | COLO 205 > 100 µM | SK-MEL-5 > 100 µM | SNB-19 > 100 µM | CAKI-1 > 100 µM | Malme-3M > 100 µM | HL-60 > 100 µM | UO-31 > 100 µM | M14 > 100 µM | MCF7 > 100 µM | SK-MEL-2 > 100 µM | SF-268 > 100 µM | SW-620 > 100 µM | SK-MEL-28 > 100 µM | ACHN > 100 µM | SR > 100 µM | A498 > 100 µM | SN12C > 100 µM
> 100 µM: HCT-15

COc1ccc(C(=O)Nc2ccc3oc(-c4ccccc4)nc3c2)cc1
> 100 µM: HCT-15
active: UO-31 0.227 µM
inactive: HT-29 > 100 µM | COLO 205 > 100 µM | SK-MEL-5 > 100 µM | SNB-19 50.5 µM | CAKI-1 > 100 µM | Malme-3M > 100 µM | HL-60 > 100 µM | M14 > 100 µM | MCF7 > 100 µM | SK-MEL-2 > 100 µM | SF-268 > 100 µM | SW-620 > 100 µM | SK-MEL-28 > 100 µM | ACHN > 100 µM | SR > 100 µM | A498 > 100 µM | SN12C > 100 µM

O=C(COc1ccc(Cl)c(Cl)c1)N(Cc1ccccc1)Cc1ccc[n+](Cc2ccc(Cl)cc2S(=O)(=O)F)c1
31.5 µM: HCT-15
inactive: HT-29 > 100 µM | COLO 205 72.3 µM | SK-MEL-5 22.6 µM | SNB-19 37.8 µM | CAKI-1 > 100 µM | Malme-3M 20 µM | HL-60 30.9 µM | UO-31 > 100 µM | M14 38.5 µM | MCF7 46.3 µM | SK-MEL-2 25.4 µM | SF-268 > 100 µM | SW-620 54.2 µM | SK-MEL-28 26.8 µM | ACHN 56.4 µM | SR 23.2 µM | A498 > 100 µM | SN12C > 100 µM

CCN1c2cc(Br)cc3[nH]c(=O)n(c23)CCC1C (stereo not given)
inactive: HT-29 15.6 µM | COLO 205 14.9 µM | SK-MEL-5 15.2 µM | SNB-19 23.2 µM | CAKI-1 11.6 µM | Malme-3M 21.5 µM | HL-60 11.9 µM | UO-31 14 µM | M14 17.2 µM | MCF7 19.7 µM | SK-MEL-2 15.6 µM | SF-268 14.2 µM | SW-620 5.48 µM | SK-MEL-28 18.7 µM | ACHN 19.5 µM | SR 6.56 µM | A498 12.3 µM | SN12C 16.7 µM
14.5 µM: HCT-15

CC(C)(C)c1cc(OCc2nnc(S)n2N)c(Cl)cc1OCc1nnc(S)n1N
inactive: HT-29 43.9 µM | COLO 205 42.2 µM | SK-MEL-5 26.5 µM | SNB-19 42.1 µM | CAKI-1 > 100 µM | Malme-3M 38.1 µM | HL-60 4.19 µM | UO-31 63.2 µM | M14 51.3 µM | MCF7 38.5 µM | SK-MEL-2 18.4 µM | SF-268 45.5 µM | SW-620 43.2 µM | SK-MEL-28 45.9 µM | ACHN 63.7 µM | SR 22.3 µM | A498 30.6 µM | SN12C 28.4 µM
55.8 µM: HCT-15

C[N+]1(CCCCN2c3ccccc3Sc3cc(N=[N+]=[N-])ccc32)CCN(C(=O)CCNC(=O)Cc2ccc(C(=O)c3ccccc3)cc2)CC1
22.8 µM: HCT-15
inactive: HT-29 18.1 µM | COLO 205 14.7 µM | SK-MEL-5 20.6 µM | SNB-19 26.9 µM | CAKI-1 25.2 µM | Malme-3M 18.7 µM | HL-60 9.1 µM | UO-31 19.3 µM | M14 23.4 µM | MCF7 19.7 µM | SK-MEL-2 29.4 µM | SF-268 23.4 µM | SW-620 29.2 µM | SK-MEL-28 16 µM | ACHN 19.2 µM | SR 18.7 µM | A498 26.4 µM | SN12C 21.2 µM

C=C1C(=O)OC2CC(C)C3(O)CCC(=O)C3(C)CC12 (stereo not given)
14.9 µM: HCT-15
inactive: HT-29 20.2 µM | COLO 205 40 µM | SK-MEL-5 36.6 µM | SNB-19 18.7 µM | CAKI-1 17.5 µM | Malme-3M 19.5 µM | HL-60 18 µM | UO-31 28.2 µM | M14 22 µM | MCF7 29.2 µM | SK-MEL-2 22.2 µM | SF-268 18.5 µM | SW-620 42.1 µM | SK-MEL-28 54.8 µM | ACHN 17.5 µM | SR 23.2 µM | A498 25.8 µM | SN12C 19.1 µM

CCCCCCc1cc(C=O)sc1-c1ccc(-c2sc(-c3ccc(-c4ccc(-c5cc(CCCCCC)c(-c6ccc(-c7sc(C=O)cc7CCCCCC)s6)s5)s4)s3)cc2CCCCCC)s1
inactive: HT-29 > 100 µM | COLO 205 > 100 µM | SK-MEL-5 > 100 µM | SNB-19 > 100 µM | CAKI-1 > 100 µM | Malme-3M > 100 µM | HL-60 > 100 µM | UO-31 > 100 µM | M14 > 100 µM | MCF7 > 100 µM | SK-MEL-2 > 100 µM | SF-268 85.9 µM | SW-620 > 100 µM | SK-MEL-28 > 100 µM | ACHN > 100 µM | SR > 100 µM | A498 > 100 µM | SN12C > 100 µM
> 100 µM: HCT-15

CC(=O)OCCC1c2ccccc2-n2nc(-c3ccccc3)c(O)c21 (stereo not given)
inactive: HT-29 21.2 µM | COLO 205 20.1 µM | SK-MEL-5 17 µM | SNB-19 14.6 µM | CAKI-1 18.7 µM | Malme-3M > 10 µM | HL-60 11.1 µM | UO-31 16.7 µM | M14 15.3 µM | MCF7 7.11 µM | SK-MEL-2 27.1 µM | SF-268 34.7 µM | SW-620 15.8 µM | SK-MEL-28 16.2 µM | ACHN 19.1 µM | SR 11.4 µM | A498 16.4 µM | SN12C 14.8 µM
16.8 µM: HCT-15

CC(C)(OCc1ccccc1)c1ccccc1P(c1ccccc1)c1ccccc1
inactive: HT-29 30.1 µM | COLO 205 27 µM | SK-MEL-5 35 µM | SNB-19 69 µM | CAKI-1 31.7 µM | Malme-3M 26.2 µM | HL-60 13.5 µM | UO-31 87.7 µM | M14 43.6 µM | MCF7 40.4 µM | SK-MEL-2 73.5 µM | SF-268 83.8 µM | SW-620 82.2 µM | SK-MEL-28 42.2 µM | ACHN 44.8 µM | SR 34.8 µM | A498 89.3 µM | SN12C 46 µM
36.4 µM: HCT-15

CC1=CCC(C)=Nc2nc3ccccc3n21
inactive: HT-29 > 100 µM | COLO 205 > 100 µM | SK-MEL-5 > 100 µM | SNB-19 > 100 µM | CAKI-1 > 100 µM | Malme-3M > 100 µM | HL-60 > 100 µM | UO-31 23.2 µM | M14 > 100 µM | MCF7 > 100 µM | SK-MEL-2 > 100 µM | SF-268 > 100 µM | SW-620 > 100 µM | SK-MEL-28 > 100 µM | ACHN > 100 µM | SR > 100 µM | A498 > 100 µM | SN12C > 100 µM
> 100 µM: HCT-15

CC(=O)OC1(C)CC(C)C(=O)C(C(O)CC2CC(=O)NC(=O)C2)C1 (stereo not given)
active: HT-29 0.00798 µM | COLO 205 0.0108 µM | SK-MEL-5 0.00787 µM | SNB-19 0.0141 µM | CAKI-1 0.0875 µM | Malme-3M 0.0186 µM | HL-60 0.00955 µM | UO-31 0.0219 µM | M14 0.0161 µM | MCF7 0.0176 µM | SK-MEL-2 0.00752 µM | SF-268 0.0329 µM | SW-620 0.015 µM | SK-MEL-28 0.00776 µM | ACHN 0.00743 µM | SR 0.00185 µM | A498 0.0201 µM | SN12C 0.00822 µM
0.0348 µM: HCT-15
